# Where a name gives a salt, the structure may show the parent alone.
# Experiment: physchem
# Assay type: physicochemical
# Conditions: 25 °C
# Text: Below pH 3, the solubility increased as the pH decreased which is consistent with formation of a more soluble protonated form. […] Above pH 4, the solubility was independent of pH and remained constant (ca. 1.2 mcg/mL) up to pH 8. Above pH 8, the solubility increased with increasing pH which is due to the ionization of the quinazoline moiety.
smiles,measurement,setting,value
O=C1CN2Cc3c(ccc(Cl)c3Cl)N=C2N1 [anagrelide HCl],solubility,aqueous buffer,~1.2 µg/mL
same,solubility,"pH 0.96, simulated gastric fluid",236 µg/mL
same,solubility,"pH 11.4, aqueous buffer",992 µg/mL

# Reference: patent US20040062800A1, “Sustained release pharmaceutical dosage forms with minimized ph dependent dissolution profiles” (priority 2000, published 2004)
